Experimental data: patent US9073855B2, “BCL-2 selective apoptosis-inducing agents for the treatment of cancer and immune diseases” (AbbVie Inc., priority 2008, dated 2015)

Tests used:
FL5.12/Bcl-2 cells = assay: FL5.12/Bcl-2 cell viability assay under IL-3 withdrawal (CellTitre Glo); type: cell-based, murine; settings: Mus musculus, IL-3 withdrawn 48 hrs, then 24 hrs with compound
In short: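 Cells (1×10^6/ml) are washed, resuspended in medium lacking WEHI-3B conditioned medium as IL-3 source, and held 48 hrs. Compounds are then added at a range of concentrations for 24 hrs, after which CellTitre Glo reports viability.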

GST-Bcl-2 = GST-Bcl-2 (Homo sapiens, UniProt P10415); assay: TR-FRET binding assay, GST-Bcl-2 with F-Bak peptide probe; settings: TR-FRET Binding Affinity, GST-Bcl-2, F-Bak peptide probe
In short: (§1)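 Competitive TR-FRET: GST-fusion protein, fluorescent Bak peptide probe and Tb-labelled anti-GST antibody incubated with compound dilution series (starting 50 μM as 2× stock, 10% DMSO) for 3 h at RT. Excitation 340/35 nm; Ki derived via Wang's exact competitive-binding equation.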

GST-Bcl-XL = GST-Bcl-XL (Homo sapiens, UniProt Q07817); assay: TR-FRET binding assay, GST-Bcl-XL with F-Bak peptide probe; settings: TR-FRET Binding Affinity, GST-Bcl-XL, F-Bak peptide probe
In short: as §1

Chain of GST-Bcl-2 (P10415 whole entry, the tested form may be a part): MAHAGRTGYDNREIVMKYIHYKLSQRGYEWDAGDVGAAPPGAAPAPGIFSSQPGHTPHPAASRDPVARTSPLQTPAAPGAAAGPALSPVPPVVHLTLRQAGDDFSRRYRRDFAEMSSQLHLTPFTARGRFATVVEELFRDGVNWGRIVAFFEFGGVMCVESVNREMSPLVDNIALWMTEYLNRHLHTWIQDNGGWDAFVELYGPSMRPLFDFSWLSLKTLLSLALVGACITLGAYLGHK
Chain of GST-Bcl-XL (Q07817 whole entry): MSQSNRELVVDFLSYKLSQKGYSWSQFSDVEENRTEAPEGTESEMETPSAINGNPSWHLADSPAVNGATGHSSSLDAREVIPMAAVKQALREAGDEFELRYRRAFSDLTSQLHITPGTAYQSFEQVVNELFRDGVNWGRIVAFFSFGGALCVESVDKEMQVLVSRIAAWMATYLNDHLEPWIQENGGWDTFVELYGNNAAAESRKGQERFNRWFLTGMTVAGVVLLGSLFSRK

SMILES	EC50 (FL5.12/Bcl-2 cells) [nM]	Ki (GST-Bcl-2) [nM]	Ki (GST-Bcl-XL) [nM]
CC(C)(C)CCNc1ccc(S(=O)(=O)NC(=O)c2ccc(N3CCN(CC4=C(c5ccc(Cl)cc5)CC(C)(C)CC4)CC3)cc2Oc2ccc3[nH]ccc3c2)cc1[N+](=O)[O-] [Example 368, 4-(4-{[2-(4-chlorophenyl)-4,4-dimethylcyclohex-1-en-1-yl]methyl}piperazin-1-yl)-N-({4-[(3,3-dimethylbutyl)amino]-3-nitrophenyl}sulfonyl)-2-(1H-indol-5-yloxy)benzamide]	> 500	> 1200	> 660
CC(C)C[C@@H](CO)Nc1ccc(S(=O)(=O)NC(=O)c2ccc(N3CCN(CC4=C(c5ccc(Cl)cc5)CC(C)(C)CC4)CC3)cc2Oc2ccc3[nH]ccc3c2)cc1[N+](=O)[O-] [Example 369, 4-(4-{[2-(4-chlorophenyl)-4,4-dimethylcyclohex-1-en-1-yl]methyl}piperazin-1-yl)-N-[(4-{[(1S)-1-(hydroxymethyl)-3-methylbutyl]amino}-3-nitrophenyl)sulfonyl]-2-(1H-indol-5-yloxy)benzamide]	> 500	838	> 660
CC1(C)CCC(CN2CCN(c3ccc(C(=O)NS(=O)(=O)c4ccc(NC[C@H]5CCCO5)c([N+](=O)[O-])c4)c(Oc4ccc5[nH]ccc5c4)c3)CC2)=C(c2ccc(Cl)cc2)C1 [Example 370, 4-(4-{[2-(4-chlorophenyl)-4,4-dimethylcyclohex-1-en-1-yl]methyl}piperazin-1-yl)-2-(1H-indol-5-yloxy)-N-[(3-nitro-4-{[(2R)-tetrahydrofuran-2-ylmethyl]amino}phenyl)sulfonyl]benzamide]	263	0.904	> 660
CC(C)[C@H](CO)Nc1ccc(S(=O)(=O)NC(=O)c2ccc(N3CCN(CC4=C(c5ccc(Cl)cc5)CC(C)(C)CC4)CC3)cc2Oc2ccc3[nH]ccc3c2)cc1[N+](=O)[O-] [Example 371, 4-(4-{[2-(4-chlorophenyl)-4,4-dimethylcyclohex-1-en-1-yl]methyl}piperazin-1-yl)-N-[(4-{[(1R)-1-(hydroxymethyl)-2-methylpropyl]amino}-3-nitrophenyl)sulfonyl]-2-(1H-indol-5-yloxy)benzamide]	> 500	8.38	> 660
COc1ccc(Nc2ccc(S(=O)(=O)NC(=O)c3ccc(N4CCN(CC5=C(c6ccc(Cl)cc6)CC(C)(C)CC5)CC4)cc3Oc3ccc4[nH]ccc4c3)cc2[N+](=O)[O-])cc1 [Example 372, 4-(4-{[2-(4-chlorophenyl)-4,4-dimethylcyclohex-1-en-1-yl]methyl}piperazin-1-yl)-2-(1H-indol-5-yloxy)-N-({4-[(4-methoxyphenyl)amino]-3-nitrophenyl}sulfonyl)benzamide]	> 500	> 1200	> 660
CC1(C)CCC(CN2CCN(c3ccc(C(=O)NS(=O)(=O)c4ccc(NCCCN5CCCC5=O)c([N+](=O)[O-])c4)c(Oc4ccc5[nH]ccc5c4)c3)CC2)=C(c2ccc(Cl)cc2)C1 [Example 374, 4-(4-{[2-(4-chlorophenyl)-4,4-dimethylcyclohex-1-en-1-yl]methyl}piperazin-1-yl)-2-(1H-indol-5-yloxy)-N-[(3-nitro-4-{[3-(2-oxopyrrolidin-1-yl)propyl]amino}phenyl)sulfonyl]benzamide]	> 500	2.27	> 660
CC1(C)CCC(CN2CCN(c3ccc(C(=O)NS(=O)(=O)c4ccc(Nc5ccc(O)cc5)c([N+](=O)[O-])c4)c(Oc4ccc5[nH]ccc5c4)c3)CC2)=C(c2ccc(Cl)cc2)C1 [Example 375, 4-(4-{[2-(4-chlorophenyl)-4,4-dimethylcyclohex-1-en-1-yl]methyl}piperazin-1-yl)-N-({4-[(4-hydroxyphenyl)amino]-3-nitrophenyl}sulfonyl)-2-(1H-indol-5-yloxy)benzamide]	> 500	11.3	> 660
CC1(C)CCC(CN2CCN(c3ccc(C(=O)NS(=O)(=O)c4ccc(NCCc5ccc(S(N)(=O)=O)cc5)c([N+](=O)[O-])c4)c(Oc4ccc5[nH]ccc5c4)c3)CC2)=C(c2ccc(Cl)cc2)C1 [Example 376, N-{[4-({2-[4-(aminosulfonyl)phenyl]ethyl}amino)-3-nitrophenyl]sulfonyl}-4-(4-{[2-(4-chlorophenyl)-4,4-dimethylcyclohex-1-en-1-yl]methyl}piperazin-1-yl)-2-(1H-indol-5-yloxy)benzamide]	> 500	22.4	> 660
CC1(C)CCC(CN2CCN(c3ccc(C(=O)NS(=O)(=O)c4ccc(NCCCn5ccnc5)c([N+](=O)[O-])c4)c(Oc4ccc5[nH]ccc5c4)c3)CC2)=C(c2ccc(Cl)cc2)C1 [Example 377, 4-(4-{[2-(4-chlorophenyl)-4,4-dimethylcyclohex-1-en-1-yl]methyl}piperazin-1-yl)-N-[(4-{[3-(1H-imidazol-1-yl)propyl]amino}-3-nitrophenyl)sulfonyl]-2-(1H-indol-5-yloxy)benzamide]	85.7	0.14	325
C[C@H](Nc1ccc(S(=O)(=O)NC(=O)c2ccc(N3CCN(CC4=C(c5ccc(Cl)cc5)CC(C)(C)CC4)CC3)cc2Oc2ccc3[nH]ccc3c2)cc1[N+](=O)[O-])c1ccccc1 [Example 378, 4-(4-{[2-(4-chlorophenyl)-4,4-dimethylcyclohex-1-en-1-yl]methyl}piperazin-1-yl)-2-(1H-indol-5-yloxy)-N-[(3-nitro-4-{[(1S)-1-phenylethyl]amino}phenyl)sulfonyl]benzamide]	> 500	63	> 660
CC1(C)CCC(CN2CCN(c3ccc(C(=O)NS(=O)(=O)c4cc(F)c(NCC5CCOCC5)cc4Cl)c(Oc4ccc5[nH]ccc5c4)c3)CC2)=C(c2ccc(Cl)cc2)C1 [Example 379, N-({2-chloro-5-fluoro-4-[(tetrahydro-2H-pyran-4-ylmethyl)amino]phenyl}sulfonyl)-4-(4-{[2-(4-chlorophenyl)-4,4-dimethylcyclohex-1-en-1-yl]methyl}piperazin-1-yl)-2-(1H-indol-5-yloxy)benzamide]	> 500	256	> 660
COCCOCCSc1ccc(S(=O)(=O)NC(=O)c2ccc(N3CCN(CC4=C(c5ccc(Cl)cc5)CC(C)(C)CC4)CC3)cc2Oc2ccc3[nH]ccc3c2)cc1[N+](=O)[O-] [Example 380, 4-(4-{[2-(4-chlorophenyl)-4,4-dimethylcyclohex-1-en-1-yl]methyl}piperazin-1-yl)-2-(1H-indol-5-yloxy)-N-[(4-{[2-(2-methoxyethoxy)ethyl]thio}-3-nitrophenyl)sulfonyl]benzamide]	68.5	0.083	175
COCCOCCSc1ccc(S(=O)(=O)NC(=O)c2ccc(N3CCN(CC4=C(c5ccc(Cl)cc5)CC(C)(C)CC4)CC3)cc2Oc2cccc3[nH]ccc23)cc1[N+](=O)[O-] [Example 381, 4-(4-{[2-(4-chlorophenyl)-4,4-dimethylcyclohex-1-en-1-yl]methyl}piperazin-1-yl)-2-(1H-indol-4-yloxy)-N-[(4-{[2-(2-methoxyethoxy)ethyl]thio}-3-nitrophenyl)sulfonyl]benzamide]	71.8	0.054	24.2
CC1(C)CCC(CN2CCN(c3ccc(C(=O)NS(=O)(=O)c4ccc(S(C)(=O)=O)cc4)c(Oc4ccc5[nH]ccc5c4)c3)CC2)=C(c2ccc(Cl)cc2)C1 [Example 382, 4-(4-{[2-(4-chlorophenyl)-4,4-dimethylcyclohex-1-en-1-yl]methyl}piperazin-1-yl)-2-(1H-indol-5-yloxy)-N-{[4-(methylsulfonyl)phenyl]sulfonyl}benzamide]	> 500	1.15	> 660
CC1(C)CCC(CN2CCN(c3ccc(C(=O)NS(=O)(=O)c4ccc(S(C)(=O)=O)cc4)c(Oc4cccc5[nH]ccc45)c3)CC2)=C(c2ccc(Cl)cc2)C1 [Example 383, 4-(4-{[2-(4-chlorophenyl)-4,4-dimethylcyclohex-1-en-1-yl]methyl}piperazin-1-yl)-2-(1H-indol-4-yloxy)-N-{[4-(methylsulfonyl)phenyl]sulfonyl}benzamide]	> 500	2.17	> 660
CC1(C)CCC(CN2CCN(c3ccc(C(=O)NS(=O)(=O)c4ccc(OCC5CCOC(C)(C)C5)c([N+](=O)[O-])c4)c(Oc4ccc5[nH]ccc5c4)c3)CC2)=C(c2ccc(Cl)cc2)C1 (stereo not drawn) [Example 384, 4-(4-{[2-(4-chlorophenyl)-4,4-dimethylcyclohex-1-en-1-yl]methyl}piperazin-1-yl)-N-({4-[(2,2-dimethyltetrahydro-2H-pyran-4-yl)methoxy]-3-nitrophenyl}sulfonyl)-2-(1H-indol-5-yloxy)benzamide]	101	0.076	> 660
CC1(C)CCC(CN2CCN(c3ccc(C(=O)NS(=O)(=O)c4cnc(OCC5(F)CCOCC5)c(C#N)c4)c(Oc4ccc5[nH]ccc5c4)c3)CC2)=C(c2ccc(Cl)cc2)C1 [Example 385, 4-(4-{[2-(4-chlorophenyl)-4,4-dimethylcyclohex-1-en-1-yl]methyl}piperazin-1-yl)-N-({5-cyano-6-[(4-fluorotetrahydro-2H-pyran-4-yl)methoxy]pyridin-3-yl}sulfonyl)-2-(1H-indol-5-yloxy)benzamide]	56.4	0.062	130
